Experiments:
[1] = biological target: Mitogen-activated protein kinase 13 (Homo sapiens) (UniProt O15264)
[2] = biological target: Phosphatidylinositol 3-kinase catalytic subunit type 3 (Homo sapiens) (UniProt Q8NEB9)
[3] = biological target: Activin receptor type-1-like (Homo sapiens) (UniProt P37023)
[4] = biological target: Cyclin-dependent kinase 16 (Homo sapiens) (UniProt Q00536)
[5] = biological target: Serine/threonine-protein kinase RIO2 (Homo sapiens) (UniProt Q9BVS4)
[6] = system: Receptor-type tyrosine-protein kinase FLT3 (Homo sapiens), P36888 [D835V]
[7] = biological target: Serine/threonine-protein kinase Nek10 (Homo sapiens) (UniProt Q6ZWH5)
[8] = biological target: Serine/threonine-protein kinase PAK 2 (Homo sapiens) (UniProt Q13177)
[9] = biological target: Ribosomal protein S6 kinase alpha-6 (Homo sapiens) (UniProt Q9UK32)
[10] = biological target: Death-associated protein kinase 1 (Homo sapiens) (UniProt P53355)
[11] = biological target: RAF proto-oncogene serine/threonine-protein kinase (Homo sapiens) (UniProt P04049)
[12] = biological target: Phosphatidylinositol 4,5-bisphosphate 3-kinase catalytic subunit alpha isoform (Homo sapiens) (UniProt P42336)
Phosphatidylinositol 4,5-bisphosphate 3-kinase catalytic subunit alpha isoform (Homo sapiens), sequence (P42336 whole entry, canonical isoform): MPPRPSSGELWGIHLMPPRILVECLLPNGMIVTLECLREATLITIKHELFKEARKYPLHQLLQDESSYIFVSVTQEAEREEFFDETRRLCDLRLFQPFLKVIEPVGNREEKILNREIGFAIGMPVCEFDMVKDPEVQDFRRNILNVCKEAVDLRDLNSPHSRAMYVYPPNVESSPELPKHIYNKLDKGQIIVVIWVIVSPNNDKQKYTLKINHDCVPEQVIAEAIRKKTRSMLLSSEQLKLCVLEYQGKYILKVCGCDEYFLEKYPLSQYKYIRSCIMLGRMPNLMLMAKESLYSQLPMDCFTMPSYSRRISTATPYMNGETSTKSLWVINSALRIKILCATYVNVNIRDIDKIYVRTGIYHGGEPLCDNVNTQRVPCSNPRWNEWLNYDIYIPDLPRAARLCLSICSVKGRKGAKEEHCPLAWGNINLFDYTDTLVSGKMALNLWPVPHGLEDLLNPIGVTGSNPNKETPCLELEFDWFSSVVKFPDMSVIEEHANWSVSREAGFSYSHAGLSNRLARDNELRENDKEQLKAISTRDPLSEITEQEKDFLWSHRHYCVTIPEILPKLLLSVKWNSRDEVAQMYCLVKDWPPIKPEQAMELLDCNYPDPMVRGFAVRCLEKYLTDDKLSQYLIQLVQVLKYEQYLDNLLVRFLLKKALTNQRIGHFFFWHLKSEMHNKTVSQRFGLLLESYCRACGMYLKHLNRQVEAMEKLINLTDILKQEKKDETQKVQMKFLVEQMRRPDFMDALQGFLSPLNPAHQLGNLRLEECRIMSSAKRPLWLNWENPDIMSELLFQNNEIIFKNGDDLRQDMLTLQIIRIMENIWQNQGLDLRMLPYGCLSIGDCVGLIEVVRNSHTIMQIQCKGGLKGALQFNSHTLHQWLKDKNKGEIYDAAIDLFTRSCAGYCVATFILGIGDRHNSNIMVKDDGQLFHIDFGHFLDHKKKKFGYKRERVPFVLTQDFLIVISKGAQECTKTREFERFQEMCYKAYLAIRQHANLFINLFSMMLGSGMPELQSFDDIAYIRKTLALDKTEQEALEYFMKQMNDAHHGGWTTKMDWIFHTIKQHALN

[13] = biological target: Inhibitor of nuclear factor kappa-B kinase subunit beta (Homo sapiens) (UniProt O14920)
[14] = biological target: Serine/threonine-protein kinase PLK1 (Homo sapiens) (UniProt P53350)
Serine/threonine-protein kinase PLK1 (Homo sapiens), sequence (P53350 whole entry): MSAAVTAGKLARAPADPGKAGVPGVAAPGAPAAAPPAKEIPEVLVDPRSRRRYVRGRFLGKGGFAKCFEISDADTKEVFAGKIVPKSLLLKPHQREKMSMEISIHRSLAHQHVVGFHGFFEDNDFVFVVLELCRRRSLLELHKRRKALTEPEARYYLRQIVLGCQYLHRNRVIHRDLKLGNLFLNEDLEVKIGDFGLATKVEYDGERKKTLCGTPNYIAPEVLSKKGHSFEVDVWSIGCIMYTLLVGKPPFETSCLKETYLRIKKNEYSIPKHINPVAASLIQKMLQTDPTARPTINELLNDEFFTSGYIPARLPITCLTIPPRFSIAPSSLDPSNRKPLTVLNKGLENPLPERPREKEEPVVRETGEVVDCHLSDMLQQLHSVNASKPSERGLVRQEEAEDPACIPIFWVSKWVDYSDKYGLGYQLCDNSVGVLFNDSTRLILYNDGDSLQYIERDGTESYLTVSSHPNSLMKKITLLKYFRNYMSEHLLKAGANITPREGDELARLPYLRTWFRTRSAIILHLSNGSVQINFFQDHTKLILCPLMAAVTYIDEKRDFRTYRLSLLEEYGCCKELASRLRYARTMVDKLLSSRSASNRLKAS

[15] = system: Proto-oncogene tyrosine-protein kinase receptor Ret (Homo sapiens), P07949 [V804L]
[16] = biological target: Sodium-dependent serotonin transporter (Homo sapiens) (UniProt P31645); conditions: Compound concentration 10.0 uM
[17] = biological target: Receptor tyrosine-protein kinase erbB-4 (Homo sapiens) (UniProt Q15303)
[18] = biological target: Dual specificity mitogen-activated protein kinase kinase 1 (Homo sapiens) (UniProt Q02750)
[19] = biological target: Cyclin-dependent kinase 13 (Homo sapiens) (UniProt Q14004)
[20] = biological target: Cyclin-dependent kinase 18 (Homo sapiens) (UniProt Q07002)
Cyclin-dependent kinase 18 (Homo sapiens), sequence (Q07002 whole entry): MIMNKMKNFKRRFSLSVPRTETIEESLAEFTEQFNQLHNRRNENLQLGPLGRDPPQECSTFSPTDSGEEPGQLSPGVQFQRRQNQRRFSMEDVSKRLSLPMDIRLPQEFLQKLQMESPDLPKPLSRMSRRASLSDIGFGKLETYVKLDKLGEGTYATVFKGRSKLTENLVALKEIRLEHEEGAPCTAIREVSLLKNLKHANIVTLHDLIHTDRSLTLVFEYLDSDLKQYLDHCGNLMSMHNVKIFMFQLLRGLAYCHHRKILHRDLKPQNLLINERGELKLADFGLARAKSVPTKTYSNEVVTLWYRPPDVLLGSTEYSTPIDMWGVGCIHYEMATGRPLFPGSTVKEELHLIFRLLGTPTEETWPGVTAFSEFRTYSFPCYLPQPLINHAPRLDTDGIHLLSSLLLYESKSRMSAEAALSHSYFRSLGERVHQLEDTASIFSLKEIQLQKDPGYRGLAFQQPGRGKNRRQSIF

[21] = system: Epidermal growth factor receptor (Homo sapiens), P00533 [L858R]
[22] = biological target: Mitogen-activated protein kinase kinase kinase 3 (Homo sapiens) (UniProt Q99759)
[23] = biological target: Serine/threonine-protein kinase WNK3 (Homo sapiens) (UniProt Q9BYP7)
[24] = system: Phosphatidylinositol 4,5-bisphosphate 3-kinase catalytic subunit alpha isoform (Homo sapiens), P42336 [E542K]
Phosphatidylinositol 4,5-bisphosphate 3-kinase catalytic subunit alpha isoform (Homo sapiens), P42336 [E542K], sequence (P42336 whole entry E542K, canonical isoform): as the sequence (P42336 whole entry, canonical isoform) above, with E542K counted along it

[25] = biological target: Phosphatidylinositol 5-phosphate 4-kinase type-2 beta (Homo sapiens) (UniProt P78356)
[26] = biological target: Calcium/calmodulin-dependent protein kinase type 1 (Homo sapiens) (UniProt Q14012)
Calcium/calmodulin-dependent protein kinase type 1 (Homo sapiens), sequence (Q14012 whole entry, looked up): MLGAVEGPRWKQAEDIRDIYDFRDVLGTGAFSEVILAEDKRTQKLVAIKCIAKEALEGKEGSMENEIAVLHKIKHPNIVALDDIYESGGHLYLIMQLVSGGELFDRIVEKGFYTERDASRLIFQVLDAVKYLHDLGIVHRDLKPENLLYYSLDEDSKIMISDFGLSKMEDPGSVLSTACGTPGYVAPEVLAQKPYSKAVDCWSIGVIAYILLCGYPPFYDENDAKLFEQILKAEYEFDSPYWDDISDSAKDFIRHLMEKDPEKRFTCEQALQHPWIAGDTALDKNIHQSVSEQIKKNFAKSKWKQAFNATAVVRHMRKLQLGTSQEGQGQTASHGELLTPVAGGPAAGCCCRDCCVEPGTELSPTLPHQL

[27] = biological target: Mitogen-activated protein kinase 15 (Homo sapiens) (UniProt Q8TD08)
[28] = biological target: Serine/threonine-protein kinase tousled-like 2 (Homo sapiens) (UniProt Q86UE8)
[29] = biological target: Cyclin-dependent kinase 8 (Homo sapiens) (UniProt P49336)
[30] = biological target: Serine/threonine-protein kinase PAK 1 (Homo sapiens) (UniProt Q13153)
Serine/threonine-protein kinase PAK 1 (Homo sapiens), sequence (Q13153 whole entry): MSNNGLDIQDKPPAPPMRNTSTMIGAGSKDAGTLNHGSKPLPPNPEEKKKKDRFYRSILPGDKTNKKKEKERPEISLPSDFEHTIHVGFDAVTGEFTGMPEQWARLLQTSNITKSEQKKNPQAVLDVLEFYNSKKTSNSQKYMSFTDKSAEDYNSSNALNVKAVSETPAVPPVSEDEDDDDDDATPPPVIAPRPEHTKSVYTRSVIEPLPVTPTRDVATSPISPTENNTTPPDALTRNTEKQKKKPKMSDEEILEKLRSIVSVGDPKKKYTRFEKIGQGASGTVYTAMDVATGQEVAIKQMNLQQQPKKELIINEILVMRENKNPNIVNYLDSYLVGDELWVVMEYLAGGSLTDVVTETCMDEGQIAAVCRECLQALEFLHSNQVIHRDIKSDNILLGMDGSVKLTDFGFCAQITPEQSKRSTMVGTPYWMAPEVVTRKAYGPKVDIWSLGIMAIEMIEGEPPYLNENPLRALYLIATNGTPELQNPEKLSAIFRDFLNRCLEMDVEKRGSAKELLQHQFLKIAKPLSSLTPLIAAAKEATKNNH

[31] = biological target: Mitogen-activated protein kinase 10 (Homo sapiens) (UniProt P53779)
Mitogen-activated protein kinase 10 (Homo sapiens), sequence (P53779 whole entry): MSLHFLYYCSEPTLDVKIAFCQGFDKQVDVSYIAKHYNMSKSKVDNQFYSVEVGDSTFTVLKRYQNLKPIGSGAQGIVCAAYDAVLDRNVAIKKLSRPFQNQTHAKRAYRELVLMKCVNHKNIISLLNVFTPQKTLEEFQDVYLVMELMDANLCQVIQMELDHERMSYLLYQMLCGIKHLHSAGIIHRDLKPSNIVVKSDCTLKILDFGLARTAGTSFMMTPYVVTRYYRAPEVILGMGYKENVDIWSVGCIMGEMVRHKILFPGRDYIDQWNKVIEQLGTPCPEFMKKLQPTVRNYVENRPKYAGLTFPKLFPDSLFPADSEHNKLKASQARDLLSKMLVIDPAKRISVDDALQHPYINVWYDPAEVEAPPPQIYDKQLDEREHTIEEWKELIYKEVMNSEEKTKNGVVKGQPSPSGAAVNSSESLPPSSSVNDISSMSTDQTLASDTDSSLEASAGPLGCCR

[32] = biological target: Serine/threonine-protein kinase PknB (Mycobacterium tuberculosis) (UniProt P9WI81)
[33] = system: Epidermal growth factor receptor (Homo sapiens), P00533 [L858R,T790M]
[34] = biological target: Cyclin-dependent kinase 4 (Homo sapiens) (UniProt P11802)
[35] = biological target: Serine/threonine-protein kinase TAO3 (Homo sapiens) (UniProt Q9H2K8)
[36] = biological target: Serine/threonine-protein kinase 35 (Homo sapiens) (UniProt Q8TDR2)
[37] = biological target: Protein kinase C eta type (Homo sapiens) (UniProt P24723)
Protein kinase C eta type (Homo sapiens), sequence (P24723 whole entry): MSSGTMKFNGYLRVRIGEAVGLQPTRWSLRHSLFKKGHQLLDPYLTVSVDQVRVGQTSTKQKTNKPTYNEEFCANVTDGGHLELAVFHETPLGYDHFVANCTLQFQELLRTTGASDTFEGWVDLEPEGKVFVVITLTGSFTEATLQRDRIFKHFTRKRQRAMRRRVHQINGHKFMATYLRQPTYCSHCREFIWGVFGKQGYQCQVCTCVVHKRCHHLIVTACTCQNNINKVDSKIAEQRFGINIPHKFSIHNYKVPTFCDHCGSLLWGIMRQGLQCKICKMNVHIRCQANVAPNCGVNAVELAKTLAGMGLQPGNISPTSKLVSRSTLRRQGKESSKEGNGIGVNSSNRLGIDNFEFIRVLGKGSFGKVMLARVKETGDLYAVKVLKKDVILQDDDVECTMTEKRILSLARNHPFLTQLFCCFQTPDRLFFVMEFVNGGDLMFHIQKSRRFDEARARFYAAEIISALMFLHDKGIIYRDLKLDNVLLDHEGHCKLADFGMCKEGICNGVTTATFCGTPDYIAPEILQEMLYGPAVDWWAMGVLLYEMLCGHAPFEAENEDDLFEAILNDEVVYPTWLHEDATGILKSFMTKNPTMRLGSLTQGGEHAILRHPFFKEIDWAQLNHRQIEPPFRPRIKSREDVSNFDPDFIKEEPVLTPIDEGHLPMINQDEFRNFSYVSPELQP

[38] = biological target: Cyclin-dependent kinase 17 (Homo sapiens) (UniProt Q00537)
[39] = biological target: NUAK family SNF1-like kinase 1 (Homo sapiens) (UniProt O60285)
[40] = system: Tyrosine-protein kinase ABL1 (Homo sapiens), P00519 [T315I]
[41] = biological target: Serine/threonine-protein kinase PLK2 (Homo sapiens) (UniProt Q9NYY3)
[42] = biological target: Serine/threonine-protein kinase PAK 4 (Homo sapiens) (UniProt O96013)
[43] = biological target: Ribosomal protein S6 kinase alpha-4 (Homo sapiens) (UniProt O75676)
[44] = biological target: MAP kinase-activated protein kinase 2 (Homo sapiens) (UniProt P49137)
[45] = biological target: Activated CDC42 kinase 1 (Homo sapiens) (UniProt Q07912)
[46] = Compound concentration 1000.0 nM
[47] = Compound concentration 100.0 nM

Serine/threonine-protein kinase RIO2 (Homo sapiens), sequence (Q9BVS4 whole entry, looked up): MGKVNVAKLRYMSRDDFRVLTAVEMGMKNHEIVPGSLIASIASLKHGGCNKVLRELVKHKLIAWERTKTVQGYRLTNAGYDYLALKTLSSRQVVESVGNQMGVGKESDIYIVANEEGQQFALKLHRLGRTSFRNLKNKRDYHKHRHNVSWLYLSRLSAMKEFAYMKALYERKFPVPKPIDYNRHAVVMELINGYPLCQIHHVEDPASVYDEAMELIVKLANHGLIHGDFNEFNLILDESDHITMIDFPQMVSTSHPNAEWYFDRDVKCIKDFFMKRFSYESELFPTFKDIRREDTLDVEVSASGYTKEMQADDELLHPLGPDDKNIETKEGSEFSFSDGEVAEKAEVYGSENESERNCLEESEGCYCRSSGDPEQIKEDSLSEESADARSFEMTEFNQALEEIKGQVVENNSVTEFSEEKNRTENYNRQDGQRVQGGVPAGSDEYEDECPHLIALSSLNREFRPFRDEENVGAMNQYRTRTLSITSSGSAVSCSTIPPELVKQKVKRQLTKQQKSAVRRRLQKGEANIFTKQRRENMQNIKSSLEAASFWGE

Work on `C[C@H](NC(=O)Nc1cc2[nH]ncc2c(CO)n1)c1ccccn1` [ERKi-NC] yielded a residual activity [1, 46] of 85%, a residual activity [2, 46] of 97% and a residual activity [3, 46] of 92.3%. The residual activity [4, 46] was 100%, the residual activity [5, 46] was 100% and the residual activity [6, 46] was 88%. The residual activity [7, 46] was 53.8%, the residual activity [8, 46] was 94.3% and the residual activity [9, 46] was 82.7%. It also gave a residual activity [10, 46] of 100%, a residual activity [11, 46] of 90.2% and a residual activity [12, 46] of 100%. It also gave a residual activity [13, 46] of 100%, a residual activity [14, 46] of 92.1% and a residual activity [15, 46] of 100%. The inhibition [16] was -0.787%, the residual activity [17, 46] was 100% and the residual activity [18, 46] was 97.6%. For the same compound, the residual activity [19, 46] was 79%, the residual activity [20, 46] was 100% and the residual activity [21, 46] was 100%. It also gave a residual activity [22, 46] of 100%, a residual activity [23, 46] of 100% and a residual activity [24, 46] of 76.7%. For the same compound, the residual activity [25, 46] was 99.5%, the residual activity [26, 46] was 100% and the residual activity [27, 46] was 100%. It also gave a residual activity [28, 46] of 88.4%, a residual activity [29, 46] of 100% and a residual activity [30, 46] of 100%. It also gave a residual activity [31, 46] of 74.6%, a residual activity [32, 46] of 100% and a residual activity [33, 46] of 100%. The residual activity [34, 46] was 100%, the residual activity [35, 46] was 100% and the residual activity [36, 46] was 100%. For the same compound, the residual activity [37, 46] was 95.4%, the residual activity [38, 46] was 78% and the residual activity [39, 46] was 100%. For the same compound, the residual activity [40, 46] was 94.4%, the residual activity [41, 46] was 100% and the residual activity [42, 46] was 90.2%. For the same compound, the residual activity [43, 46] was 100%, the residual activity [44, 46] was 100% and the residual activity [45, 46] was 100%.
`C[C@@H](NC(=O)Nc1cc2[nH]ncc2c(CO)n1)c1ccccc1` [ERKi] gave a residual activity [1, 47] of 100%, a residual activity [2, 47] of 71.2% and a residual activity [3, 47] of 90.9%. The residual activity [4, 47] was 82.2%, the residual activity [5, 47] was 84.6% and the residual activity [6, 47] was 95.2%. For the same compound, the residual activity [7, 47] was 100%, the residual activity [8, 47] was 86.3% and the residual activity [9, 47] was 96.8%. The residual activity [10, 47] was 90.5%, the residual activity [11, 47] was 100% and the residual activity [12, 47] was 86%. The residual activity [13, 47] was 100%, the residual activity [14, 47] was 58.4% and the residual activity [15, 47] was 100%. For the same compound, the inhibition [16] was 2.86%, the residual activity [17, 47] was 97.6% and the residual activity [18, 47] was 79.8%. It also gave a residual activity [19, 47] of 45.7%, a residual activity [20, 47] of 100% and a residual activity [21, 47] of 86.7%. For the same compound, the residual activity [22, 47] was 82.1%, the residual activity [23, 47] was 47.3% and the residual activity [24, 47] was 78.6%. For the same compound, the residual activity [25, 47] was 45%, the residual activity [26, 47] was 67.1% and the residual activity [27, 47] was 37.1%. It also gave a residual activity [28, 47] of 86.9%, a residual activity [29, 47] of 76.1% and a residual activity [30, 47] of 79.1%. It also gave a residual activity [31, 47] of 68.1%, a residual activity [32, 47] of 85% and a residual activity [33, 47] of 100%. It also gave a residual activity [34, 47] of 83.1%, a residual activity [35, 47] of 73% and a residual activity [36, 47] of 91.1%. The residual activity [37, 47] was 90.1%, the residual activity [38, 47] was 95.9% and the residual activity [39, 47] was 94.9%. The residual activity [40, 47] was 100%, the residual activity [41, 47] was 95.1% and the residual activity [42, 47] was 93.7%. For the same compound, the residual activity [43, 47] was 94.5%, the residual activity [44, 47] was 100% and the residual activity [45, 47] was 94.8%.

— ChEMBL document CHEMBL4507286 (2021)
